Results on 11 molecules are retold here after patent US7858644B2, “EP4 receptor antagonists” (Asterand UK Limited, priority 2003, dated 2010).

Structures are written as SMILES.

In one assay the target is T1, human EP4 receptor (Homo sapiens, UniProt P35408).
T1 construct: expressed in transfected cells
The assay is described as follows: Binding ability to human EP4 receptor ([3H]PGE2 displacement). To be noted: read-out: pKi EP4 (converted). The method, then:
Membranes were prepared from cells stably transfected with human EP receptor cDNA. In brief, cells were cultured to confluency, scraped from culture flasks, and centrifuged (800 g, 8 minutes, 4° C.). Cells were twice washed in ice cold homogenisation buffer containing 10 mMTris-HCl, 1 mM EDTA. 2Na, 250 mM sucrose, 1 mM PMSF, 0.3 mM indomethacin, pH 7.4, homogenised and re-centrifuged as before. The supernatant was stored on ice and pellets re-homogenised and re-spun. Supernatants were pooled and centrifuged at 40000 g, 10 minutes, 4° C. Resultant membrane pellets were stored at −80° C. until use.
Incubations were performed at suitable temperatures and for suitable times to allow equilibrium to be reached. Non-specific binding was determined in the presence of 10 uM PGE2. Bound and free radiolabel was separated by vacuum manifold filtration using appropriate wash buffers, and bound radiolabel was determined by scintillation counting. Constituents of each of the buffers are included in table 1 below.
This approach follows that set out in Kenakin, T. P., Pharmacologic analysis of drug receptor interaction. Raven Press, New York, 2nd edition.

The target in another assay is T2, human EP2 receptor (Homo sapiens, UniProt P43116).
T2 construct: expressed in transfected cells
As to the kind of experiment: Binding ability to human EP2 receptor ([3H]PGE2 displacement). To be noted: read-out: pKi EP2 (converted). The method, boiled down: (§1)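 Membranes from cells stably transfected with human EP receptor cDNA were incubated to equilibrium with [3H]PGE2 and compound (0.1 to 10 000 nM). Non-specific binding was defined with 10 uM PGE2; bound radioligand was separated by vacuum filtration and counted by scintillation.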

For a further assay, the target named is T3, human EP3 receptor (Homo sapiens, UniProt P43115).
T3 construct: expressed in transfected cells
T3 sequence (P43115 1-390): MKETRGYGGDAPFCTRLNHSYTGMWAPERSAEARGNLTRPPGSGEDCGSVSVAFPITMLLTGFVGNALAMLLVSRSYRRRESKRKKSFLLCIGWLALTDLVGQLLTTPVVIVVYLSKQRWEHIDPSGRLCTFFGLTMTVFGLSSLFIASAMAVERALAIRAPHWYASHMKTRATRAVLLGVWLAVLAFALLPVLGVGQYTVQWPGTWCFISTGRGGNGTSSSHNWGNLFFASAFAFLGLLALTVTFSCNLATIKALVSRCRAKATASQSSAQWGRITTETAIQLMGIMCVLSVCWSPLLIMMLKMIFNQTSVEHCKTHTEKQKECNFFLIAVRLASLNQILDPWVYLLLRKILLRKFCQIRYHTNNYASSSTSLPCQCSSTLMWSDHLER
The assay is described as follows: Binding ability to human EP3 receptor ([3H]PGE2 displacement). To be noted: membranes from cells stably transfected with human EP receptor cDNA; [3H]PGE2 2.5 nM; Cheng-Prusoff from IC50; read-out: pKi EP3 (converted). The method, boiled down: as §1

T2 sequence (P43116 whole entry): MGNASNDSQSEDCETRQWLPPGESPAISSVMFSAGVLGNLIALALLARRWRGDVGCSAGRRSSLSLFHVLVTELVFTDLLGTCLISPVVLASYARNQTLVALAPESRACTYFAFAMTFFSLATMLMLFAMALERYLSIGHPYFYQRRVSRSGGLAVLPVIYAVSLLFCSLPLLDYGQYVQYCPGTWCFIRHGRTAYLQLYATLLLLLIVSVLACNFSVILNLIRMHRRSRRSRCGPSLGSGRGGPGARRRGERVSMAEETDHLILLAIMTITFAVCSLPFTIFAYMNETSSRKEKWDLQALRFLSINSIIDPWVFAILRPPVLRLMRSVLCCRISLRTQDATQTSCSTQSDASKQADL
T1 sequence (P35408 whole entry): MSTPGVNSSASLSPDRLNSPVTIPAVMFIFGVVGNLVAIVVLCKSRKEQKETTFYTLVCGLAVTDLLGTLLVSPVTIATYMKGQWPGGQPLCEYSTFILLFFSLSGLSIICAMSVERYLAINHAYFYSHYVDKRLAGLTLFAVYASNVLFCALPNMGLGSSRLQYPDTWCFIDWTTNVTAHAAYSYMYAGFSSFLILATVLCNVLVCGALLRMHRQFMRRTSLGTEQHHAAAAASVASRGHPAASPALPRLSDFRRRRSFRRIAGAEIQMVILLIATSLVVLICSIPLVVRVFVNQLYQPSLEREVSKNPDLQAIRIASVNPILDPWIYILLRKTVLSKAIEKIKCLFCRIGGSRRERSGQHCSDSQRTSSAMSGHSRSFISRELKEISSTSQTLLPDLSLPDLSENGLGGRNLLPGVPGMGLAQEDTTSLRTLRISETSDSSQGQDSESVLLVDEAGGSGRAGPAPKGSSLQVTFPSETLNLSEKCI

Consider `Cc1oc(-c2nnn[nH]2)cc1COc1ccc(-c2ccccc2)cc1` [Compound 149, 5-[4-(Biphenyl-4-yloxymethyl)-5-methyl-furan-2-yl]-1H-tetrazole], for which the figures for the Ki on human EP4 receptor, at human EP2 receptor and on human EP3 receptor were less than 0.1 µM, more than 10 µM and more than 10 µM, respectively.

Take `Cc1oc(C(=O)O)cc1CSc1ccc(-c2ccc(OC(F)F)cc2)cc1` [Compound 153, 4-(4′-Difluoromethoxy-biphenyl-4-ylsulphanylmethyl)-5-methyl-furan-2-carboxylic acid]: the results for the Ki at human EP4 receptor, on human EP2 receptor and on human EP3 receptor were less than 1 µM, more than 10 µM and more than 10 µM, respectively.

For the molecule `Cc1ccccc1S(=O)(=O)NC(=O)c1cc(CSc2ccc(-c3ccc(OC(F)F)cc3)cc2)c(C)o1` [Compound 154, N-[4-(4′-Difluoromethoxy-biphenyl-4-ylsulphanylmethyl)-5-methyl-furan-2-carbonyl]-2-methyl-benzenesulphonamide], the Ki is less than 0.0316 µM on human EP4 receptor, more than 3.16 µM on human EP2 receptor and more than 1 µM on human EP3 receptor.

In the case of `Cc1oc(C(=O)NS(=O)(=O)c2ccccc2)cc1CSc1ccc(-c2ccc(OC(F)F)cc2)cc1` [Compound 155, N-[4-(4′-Difluoromethoxy-biphenyl-4-ylsulphanylmethyl)-5-methyl-furan-2-carbonyl]-benzenesulphonamide], the Ki at human EP4 receptor was less than 1 µM; on human EP2 receptor it was more than 3.16 µM; on human EP3 receptor, more than 3.16 µM.

Consider `Cc1ccccc1S(=O)(=O)NC(=O)c1cc(C[S+]([O-])c2ccc(-c3ccc(OC(F)F)cc3)cc2)c(C)o1` (stereo not drawn) [Compound 156, N-[4-(4′-Difluoromethoxy-biphenyl-4-ylsulphinylmethyl)-5-methyl-furan-2-carbonyl]-2-methyl-benzenesulphonamide], for which the Ki at human EP4 receptor was less than 10 µM; at human EP2 receptor it was more than 10 µM; at human EP3 receptor, more than 10 µM.

For `Cc1ccccc1S(=O)(=O)NC(=O)c1cc(CS(=O)(=O)c2ccc(-c3ccc(OC(F)F)cc3)cc2)c(C)o1` [Compound 156a, N-[4-(4′-Difluoromethoxy-biphenyl-4-sulfonylmethyl)-5-methyl-furan-2-carbonyl]-2-methyl-benzenesulfonamide], the Ki at human EP4 receptor is less than 10 µM; at human EP2 receptor it was more than 10 µM; at human EP3 receptor it was more than 10 µM.

Consider `Cc1oc(C(=O)O)cc1CNc1ccc(-c2ccccc2)cc1` [Compound 160, 4-(Biphenyl-4-ylaminomethyl)-5-methyl-furan-2-carboxylic acid], for which the Ki on human EP4 receptor is less than 3.16 µM; on human EP2 receptor, more than 10 µM; at human EP3 receptor it was more than 10 µM.

`COc1ccc(-c2ccc(NCc3cc(C(=O)NS(=O)(=O)c4ccccc4C)oc3C)cc2)nc1` [Compound 167, N-(4-{[4-(5-Methoxy-pyridin-2-yl)-phenylamino]-methyl}-5-methyl-furan-2-carbonyl)-2-methyl-benzenesulphonamide]: the Ki on human EP4 receptor is less than 0.316 µM; on human EP2 receptor, more than 10 µM; on human EP3 receptor it was more than 10 µM.

As for `Cc1oc(C(=O)O)cc1CNc1ccc(-c2ccc(OC(F)F)cc2)cc1` [Compound 171, 4-(4′-Difluoromethoxy-biphenyl-4-ylaminomethyl)-5-methyl-furan-2-carboxylic acid], the Ki on human EP4 receptor was less than 0.316 µM; at human EP2 receptor, more than 10 µM; at human EP3 receptor, more than 10 µM.

On to `Cc1oc(C(=O)NS(=O)(=O)c2ccccc2)cc1CNc1ccc(-c2ccc(OC(F)F)cc2)cc1` [Compound 172, N-{4-[(4′-Difluoromethoxy-biphenyl-4-ylamino)-methyl]-5-methyl-furan-2-carbonyl}-benzenesulphonamide], for which the Ki on human EP4 receptor was less than 0.01 µM; at human EP2 receptor it was more than 10 µM; on human EP3 receptor, more than 10 µM.

In the case of `Cc1noc(C)c1S(=O)(=O)NC(=O)c1cc(CNc2ccc(-c3ccc(OC(F)F)cc3)cc2)c(C)o1` [Compound 174, 3,5-Dimethyl-isoxazole-4-sulphonic acid {4-[(4′-difluoromethoxy-biphenyl-4-ylamino)-methyl]-5-methyl-furan-2-carbonyl}-amide], the Ki on human EP4 receptor is less than 0.01 µM; on human EP2 receptor it was more than 10 µM; at human EP3 receptor, more than 10 µM.
